Data on two molecules can be found in patent publication US20210332396A1, “GENETIC ELEMENTS IN ENTEROCOCCUS SPP. TO PRODUCE DOPAMINE” (Iowa State University Research Foundation, Inc., priority 2018, published 2021).

Series [1] deals with E. faecium strain ML1082. In words: Inhibition of dopamine production of strain ML1082 by Carbidopa in sSIM. The class given is cell-based, Enterococcus faecium. As to the method:
To further verify the strains were producing dopamine from L-DOPA, Carbidopa, an inhibitor of dopamine production through L-DOPA decarboxylation, was added to sSIM. […] A functional approximation of the ICso for dopamine was calculated to be 1.53E^−3. The IC50 was similar to the L-DOPA concentration of the broth, 1.26 mM, a finding that may indicate a competitive inhibitory mechanism for the bacterial enzyme.

The conditions of series [2]: cited from earlier work.

As to `C[C@@](Cc1ccc(O)c(O)c1)(NN)C(=O)O` [Carbidopa], the “inhibition of dopamine production (in words)” value in series [1] was “dose-dependent inhibition”.
As for `NCCc1ccc(O)c(O)c1` [dopamine], in series [2] (pH of 5.6), the half-life of auto-oxidation is 324 h and the “reaction rate for the auto-oxidation (k)” value is 0.000000591 s⁻¹. In series [2] (pH of 7.4), the half-life of oxidation was 4.95 min and the oxidation rate is 0.000586 s⁻¹.
